Source: US20250387494A1, “Prodrugs Based On Tumor Targeting Near Infrared Dye-Drug Conjugates (DDC)” (Lahjavida, Inc., priority 2022, published 2025)

What was measured:
[1] = test system: 2D lung cancer cell line (A549); assay: Compound uptake study by NIR mean intensity; assay type: cell-based; conditions: 5 μM, compared with control dyes Dye 1 and Dye 2, all time points
Protocol: The tumor cells were seeded in a chamber and incubated for 24 h at 37° C. under 5% CO2. After removal of medium, cells were treated with the test materials at 5 μM concentration. When reaching the time points, cells were washed with PBS three times, then fluorescent images were taken under a fluorescent microscope.
(§1) The tumor-targeting ability and therapeutic efficacy of a four additional DDC prodrugs together with the controls of two corresponding NIR dyes, as well as two chemotherapeutic drugs were explored (Table 6) in 2D lung cancer cell line (A549) studies.
(§2) The cell lines were dosed with 5 μM of said compounds. Two studies were carried out: one was the compounds uptake study by the tumor cell line as judged by both the NIR intensity mean (FIG. 6) and by nuclei counts (FIG. 7) per well over time.

[2] = test system: SW620 tumor; assay: In vivo NIR fluorescent imaging of whole body and organs; conditions: for NIR fluorescent signal in tumor (organ imaging) / tumor accumulation, whole body NIR imaging / NIR signal (organ imaging): 10 s exposure; for tumor accumulation, whole body NIR imaging: intravenous tail injection, 11 days after second dosing at 15 mg/kg
Protocol: (§3) Thirty-nine (39) female athymic nude mice were injected subcutaneously with 10×10^6 SW620 cells in 0.1 ml PBS with 20% Matrigel on the right flank. When the tumor size reaches within the range of approximately ˜70-200 mm^3, mice were sorted as day 0. Thirty (30) mice were randomized into five (5) groups of six (6) mice per group and dosed singly (I.V.) with the test articles or the vehicle control (This day is Day 1: treatment starts). Administrations of Vehicle (saline), NIR dye (“Dye3” in Table 2), Irinotecan, NIR dye-linker-SN38 (XV), and NIR dye-linker Doxo (XVI) are described in Table 6. Before treatment starts/randomization of mice, the 6 mice whose tumors were getting within the range first were used to determine the maximum tolerated dose (MTD) or dose level of two articles NIR day-linker-SN38 (XV), and NIR dye-linker Doxo (XVI), 3 mice for each.
(§4) Tumor size will be assessed daily, and once noticed palpably, the tumor measurements/body weight started daily up to the randomization day, and before randomization, to get 6 mice as mentioned above for the MTD study, and NIR imaging. After randomization, tumor size and body weight were assessed three times a week (M, W, F) for the duration of the study. Monitoring: a), Record BW on M, W, and F; b). Record signs of distress daily; c). Record tumor size M, W, F; d). In vivo NIR imaging (Group 1, 2, 4, and 5): Ex: 780 nm, Em: 810 nm, on day 1:0.5 hr, 2 hr, 4 hr, 8 hr post day 1 dosing, then 24 hr (day 2), then in vivo imaging, every M, W, and F, until the study ended on day 35.
Mice were euthanized on day 35 or mice will be sacrificed when tumor size was more than 2000 mm^3. On termination day, NIR imaging of various organs of 3 mice (if the remaining mice >3) from each group 1, 2, 4 and 5. For each mouse: the tumor, heart, liver, spleen, lungs, kidneys, and brain are imaged at the same time.
(§5) The mice were injected with the said compounds either via intravenous tail injection or with intratumor injection for. Two studies were carried out: one was the compounds uptake study by the tumor as judged by the NIR imaging of both the whole mice body (FIGS. 10A, 10B, 11A, and 11B) and of the mice organs (FIGS. 12A, 12B, 13A, 13B, 14A and 14B). The injection method for these study was via intravenous tail injection. The second was the efficacy evaluation of these compounds as judged by their tumor growth inhibition, the injection method for these study was via both intravenous tail injection and intratumor injection.

[3] = test system: SW620 tumor; assay: Tumor growth inhibition, intratumor injection; assay type: in vivo, mice; conditions: for Tumor increase rate: intratumor 15 mg/kg; for Tumor size / tumor growth rate: intratumor injection 15 mg/kg
Protocol: as §3, §4, §5

[4] = test system: 2D lung cancer cell line (A549); assay: Compound uptake/toxicity study by nuclei counts; assay type: cell-based; conditions: 5 μM, over all the time points
Protocol: Cell viability assay was measured using Cell Titer-Glo luminescent cell ability kit via two parameters: Hoechst nuclei counts via imaging, and 2D Celltiter-glo measuring ATP content from live cells. IC50 values were calculated with a 4-variable curve analysis.
as §1, §2

[5] = test system: SW620 tumor; assay: Tumor growth inhibition, intravenous tail injection; assay type: in vivo, mice; design: key to Tumor size: tumor size in mm^3; conditions: for Tumor size: i.v. 10 mg/kg, second dose 15 mg/kg on Day 11; for Tumor increase rate: i.v.; for tumor growth rate: intravenous
Protocol: as §3, §4, §5

[6] = Day 4 vs Day 1 (cell stands under Day 1)
[7] = Day 6 vs Day 4 (cell stands under Day 4)
[8] = Day 8 vs Day 6 (cell stands under Day 6)
[9] = Day 11 vs Day 8 (cell stands under Day 8)
[10] = Day 13 vs Day 11 (cell stands under Day 11)
[11] = Day 15 vs Day 13 (cell stands under Day 13)
[12] = Day 18 vs Day 15 (cell stands under Day 15)
[13] = Day 20 vs Day 18 (cell stands under Day 18)

Q: For CCCCN1/C(=C/C=C2\CCCC(/C=C/C3=[N+](CCCCS(=O)(=O)[O-])c4ccccc4C3(C)C)=C2SCCC(=O)NCCC(=O)N2Cc3ccccc3-c3nnn(CCOCCOCCOCCOCCOCCOCCOCCOCCNC(=O)COCC(=O)N[C@H](C(=O)N[C@@H](CCCNC(N)=O)C(=O)Nc4ccc(COC(=O)N[C@@H]5CC(O[C@@H]6C[C@@](O)(C(=O)CO)Cc7c(O)c8c(c(O)c76)C(=O)c6c(OC)cccc6C8=O)O[C@H](C)[C@H]5O)cc4)C(C)C)c3-c3ccccc32)C(C)(C)c2ccccc21 (stereo partly drawn) [Compound XVI, Dye1-PEG8-Val-Cit-PABA-Doxorubicin], which “uptake by NIR Mean Intensity” value [1] is on record?
A: Its value is “taken up well”.

Q: What about the “NIR fluorescent signal in tumor (organ imaging)” value ([2]; first dose 10 mg/kg, day 17 after intravenous tail injection) of the same compound?
A: The value was “strong NIR fluorescent signals”.

Q: What about the “tumor accumulation, whole body NIR imaging” value [2] of the same compound?
A: The value was “accumulate selectively in the tumor sites”.

Q: And the “NIR fluorescent signal in tumor (organ imaging)” value ([2]; second dose 15 mg/kg, day 7 after intravenous tail injection, versus first dose day 17)?
A: Its value is “more intense”.

Q: What about the Tumor increase rate ([3]; Day 3 vs Day 1 (cell stands under Day 1)) of the same compound?
A: Its Tumor increase rate is 63%.

Q: What about the Tumor increase rate ([3]; Day 5 vs Day 3 (cell stands under Day 3)) of the same compound?
A: The Tumor increase rate was 1.1%.

Q: And the Tumor increase rate ([3]; Day 8 vs Day 5 (cell stands under Day 5))?
A: Its Tumor increase rate is 2.4%.

Q: What about the Tumor increase rate ([3]; Day 10 vs Day 8 (cell stands under Day 8)) of the same compound?
A: The Tumor increase rate was 5.5%.

Q: What about the Tumor size ([3]; Day 1 (Table 10 schedule)) of the same compound?
A: Its Tumor size is 855.4 mm^3.

Q: What about the Tumor size ([3]; Day 3) of the same compound?
A: The Tumor size was 1393.5 mm^3.

Q: And the Tumor size ([3]; Day 5)?
A: Its Tumor size is 1409 mm^3.

Q: And the Tumor size ([3]; Day 8 (Table 10 schedule))?
A: The Tumor size was 1443 mm^3.

Q: What about the Tumor size ([3]; Day 10) of the same compound?
A: The Tumor size was 1523.7 mm^3.

Q: And the tumor growth rate ([3]; as low as)?
A: The tumor growth rate was 0.4%.

Q: What about the tumor growth rate ([3]; initial) of the same compound?
A: The tumor growth rate was 24%.

Q: Which “toxicity by Nuclei Counts” value [4] does the source give for COC(=O)CCSC1=C(/C=C/C2=[N+](CCCCS(=O)(=O)[O-])c3ccccc3C2(C)C)CCC/C1=C\C=C1\N(CCCCCC(=O)O)c2ccccc2C1(C)C [Dye 2] here?
A: Its value is “not toxic”.

Q: Which “toxicity by Nuclei Counts” value [4] does the source give for CCCCN1/C(=C/C=C2\CCCC(/C=C/C3=[N+](CCCCS(=O)(=O)[O-])c4ccccc4C3(C)C)=C2SCCC(=O)O)C(C)(C)c2ccccc21 [Dye 1] here?
A: Its value is “not toxic”.

Q: What about the “NIR signal (organ imaging)” value ([2]; first dose 4.37 mg/kg, day 17 after intravenous tail injection) of the same compound?
A: The value was “no NIR signals”.

Q: What about the “NIR signal (organ imaging)” value ([2]; second dose 4.37 mg/kg, day 7 after intravenous tail injection) of the same compound?
A: The value was “strong NIR signals”.

Q: How did the “uptake by NIR Mean Intensity” value [1] turn out when CCCCN1/C(=C/C=C2\CCCC(/C=C/C3=[N+](CCCCS(=O)(=O)[O-])c4ccccc4C3(C)C)=C2SCCC(=O)NCCC(=O)N2Cc3ccccc3-c3nnn(CCOCCOCCOCCOCCOCCOCCOCCOCCNC(=O)COCC(=O)N[C@H](C(=O)N[C@@H](CCCNC(N)=O)C(=O)Nc4ccc(COC(=O)Oc5ccc6nc7c(c(CC)c6c5)Cn5c-7cc6c(c5=O)COC(=O)[C@]6(O)CC)cc4)C(C)C)c3-c3ccccc32)C(C)(C)c2ccccc21 [Compound XV, Dye1-PEG8-Val-Cit-PABA-SN-38] was run?
A: Its value is “taken up well”.

Q: And the “tumor accumulation, whole body NIR imaging” value [2]?
A: Its value is “accumulate selectively in the tumor sites”.

Q: What about the “organ NIR fluorescent signal” value ([2]; second dose 15 mg/kg, 24 hr after intravenous tail injection, auto exposure) of the same compound?
A: The value was “the tumor showed the strongest NIR fluorescent signal among all the organs”.

Q: And the Tumor size ([5]; Day 1)?
A: The Tumor size was 163.7.

Q: What about the Tumor size ([5]; Day 4) of the same compound?
A: Its Tumor size is 235.4.

Q: What about the Tumor size ([5]; Day 6) of the same compound?
A: The Tumor size was 364.9.

Q: And the Tumor size ([5]; Day 8)?
A: Its Tumor size is 794.5.

Q: And the Tumor size ([5]; Day 11)?
A: The Tumor size was 988.8.

Q: What about the Tumor size ([5]; Day 13) of the same compound?
A: Its Tumor size is 11114.9.

Q: And the Tumor size ([5]; Day 15)?
A: The Tumor size was 1193.3.

Q: What about the Tumor size ([5]; Day 18) of the same compound?
A: The Tumor size was 1239.1.

Q: And the Tumor size ([5]; Day 20)?
A: Its Tumor size is 1342.1.

Q: And the Tumor increase rate [5, 6]?
A: Its Tumor increase rate is 44%.

Q: And the Tumor increase rate [5, 7]?
A: The Tumor increase rate was 55%.

Q: And the Tumor increase rate [5, 8]?
A: Its Tumor increase rate is 118%.

Q: And the Tumor increase rate [5, 9]?
A: The Tumor increase rate was 25%.

Q: And the Tumor increase rate [5, 10]?
A: The Tumor increase rate was 12.7%.

Q: What about the Tumor increase rate [5, 11] of the same compound?
A: The Tumor increase rate was 7%.

Q: And the Tumor increase rate [5, 12]?
A: The Tumor increase rate was 3.8%.

Q: And the Tumor increase rate [5, 13]?
A: The Tumor increase rate was 8.3%.

Q: And the tumor growth rate ([5]; after the second dose (15 mg/kg, Day 11), low)?
A: Its tumor growth rate is 4%.

Q: And the tumor growth rate ([5]; before the second dose)?
A: Its tumor growth rate is 63%.

Q: What about the Tumor increase rate [3, 6] of the same compound?
A: The Tumor increase rate was 44%.

Q: What about the Tumor increase rate [3, 7] of the same compound?
A: The Tumor increase rate was 55%.

Q: And the Tumor increase rate [3, 8]?
A: Its Tumor increase rate is 118%.

Q: What about the Tumor increase rate [3, 9] of the same compound?
A: The Tumor increase rate was 25%.

Q: What about the Tumor increase rate [3, 10] of the same compound?
A: Its Tumor increase rate is 12.7%.

Q: And the Tumor increase rate [3, 11]?
A: The Tumor increase rate was 7%.

Q: And the Tumor increase rate [3, 12]?
A: Its Tumor increase rate is 3.8%.

Q: And the Tumor increase rate [3, 13]?
A: The Tumor increase rate was 8.3%.

Q: And the Tumor size ([3]; Day 1)?
A: The Tumor size was 163.7 mm^3.

Q: What about the Tumor size ([3]; Day 4) of the same compound?
A: Its Tumor size is 235.4 mm^3.

Q: And the Tumor size ([3]; Day 6)?
A: The Tumor size was 364.9 mm^3.

Q: What about the Tumor size ([3]; Day 8) of the same compound?
A: The Tumor size was 794.5 mm^3.

Q: What about the Tumor size ([3]; Day 11) of the same compound?
A: Its Tumor size is 988.8 mm^3.

Q: What about the Tumor size ([3]; Day 13) of the same compound?
A: Its Tumor size is 11114.9 mm^3.

Q: And the Tumor size ([3]; Day 15)?
A: Its Tumor size is 1193.3 mm^3.

Q: And the Tumor size ([3]; Day 18)?
A: The Tumor size was 1239.1 mm^3.

Q: And the Tumor size ([3]; Day 20)?
A: Its Tumor size is 1342.1 mm^3.

Q: What about the tumor growth rate ([3]; as low as) of the same compound?
A: The tumor growth rate was 1%.

Q: What about the tumor growth rate ([3]; initial) of the same compound?
A: Its tumor growth rate is 63%.
